Activity calls are given as the source filed them. The calls are words filed in the database; no cut-off is given here.
Tests used:
Cannabinoid receptor 1 [1] = molecular target: T1, Cannabinoid receptor 1 (Homo sapiens, UniProt P21554); assay: Negative allosteric modulator activity at human CB1R expressed in CHO-K1 cells assessed as inhibition of CP55,940-induced beta-arrestin recruitment preincubated for 30 mins followed by CP55,940 addition measured for 90 mins by PathHunter assay relative to control; type: cell-based
Cannabinoid receptor 1 [2] = molecular target: T1, Cannabinoid receptor 1; assay: Negative allosteric modulator activity at human CB1R expressed in CHO-K1 cells assessed as effect on CP55,940-induced inhibition of forskolin-induced cAMP accumulation preincubated for 30 mins followed by CP55,940 addition measured for 30 mins by HitHunter assay; type: functional, cell-based
Cannabinoid receptor 1 [3] = molecular target: T1, Cannabinoid receptor 1; assay: Negative allosteric modulator activity at human CB1R expressed in CHO-K1 cells assessed as effect on CP55,940-induced inhibition of forskolin-induced cAMP accumulation preincubated for 30 mins followed by CP55,940 addition measured for 30 mins by HitHunter assay relative to control; type: functional, cell-based
Cannabinoid receptor 1 [4] = molecular target: T1, Cannabinoid receptor 1; assay: Selectivity index, ratio of EC50 for human CB1R by cAMP assay to EC50 for human CB1R by beta-arrestin recruitment assay; type: functional, single protein
Cannabinoid receptor 1 [5] = molecular target: T1, Cannabinoid receptor 1; assay: Negative allosteric modulator activity at human CB1R expressed in CHO-K1 cells assessed as inhibition of CP55,940-induced beta-arrestin recruitment preincubated for 30 mins followed by CP55,940 addition measured for 90 mins by PathHunter assay; type: cell-based
Cannabinoid receptor 1 [6] = molecular target: T1, Cannabinoid receptor 1; assay: Positive allosteric modulator activity at human CB1R expressed in CHO cells assessed as enhanced binding of [3H]CP55,940 after 60 mins by liquid scintillation spectrometric analysis relative to control; type: cell-based
Cannabinoid receptor 1 [7] = molecular target: T1, Cannabinoid receptor 1; assay: Inverse agonist activity at human CB1R expressed in CHO-K1 cells assessed as [35S]GTPgammaS binding at 10 uM preincubated for 60 mins prior to [35S]GTPgammaS addition by liquid scintillation spectrometric analysis; type: functional, cell-based
[8] = molecular target: Cannabinoid receptor 1 (Mus musculus) (UniProt P47746); assay: Antagonist activity at CB1R in mouse brain membranes assessed as inhibition of CP55,940-induced [35S]GTPgammaS binding at 1 uM preincubated for 60 mins prior to [35S]GTPgammaS addition by liquid scintillation spectrometric analysis; type: functional, cell membranes; conditions: Membrane
Cannabinoid receptor 1 [9] = molecular target: T1, Cannabinoid receptor 1; assay: Positive allosteric modulator activity at human CB1R expressed in CHO cells assessed as enhanced binding of [3H]CP55,940 after 60 mins by liquid scintillation spectrometric analysis; type: cell-based
[10] = molecular target: Cannabinoid receptor 1 (Mus musculus) (UniProt P47746); assay: Negative allosteric modulator activity at CB1R in mouse brain membranes assessed as Emax for CP55,940-induced [35S]GTPgammaS binding at 1 uM preincubated for 60 mins prior to [35S]GTPgammaS addition by liquid scintillation spectrometric analysis relative to control (reference value: […]%); type: functional, cell membranes; conditions: Membrane
Cannabinoid receptor 1 [11] = molecular target: T1, Cannabinoid receptor 1; assay: Positive allosteric modulator activity at human CB1R expressed in HEK293 cell membranes assessed as enhanced specific binding of [3H]CP55,940 at 500 nM pre-incubated for 60 mins before [3H]CP55,940 addition followed by drug wash-out by liquid scintillation spectrometric-based saturation binding assay
[12] = molecular target: Cannabinoid receptor 1 (Mus musculus) (UniProt P47746); assay: Negative allosteric modulator activity at CB1R in mouse brain membranes assessed as inhibition of CP55,940-induced [35S]GTPgammaS binding at 100 nM and 1 uM preincubated for 60 mins prior to [35S]GTPgammaS addition by liquid scintillation spectrometric analysis; type: functional, cell membranes; conditions: Membrane
[13] = molecular target: Cannabinoid receptor 1 (Mus musculus) (UniProt P47746); assay: Agonist activity at CB1R in mouse brain membranes assessed as [35S]GTPgammaS binding at 100 nM and 1 uM preincubated for 60 mins prior to [35S]GTPgammaS addition by liquid scintillation spectrometric analysis; type: functional, cell membranes; conditions: Membrane
[14] = molecular target: Cannabinoid receptor 1 (Mus musculus) (UniProt P47746); assay: Inverse agonist activity at CB1R in mouse brain membranes assessed as [35S]GTPgammaS binding at 100 nM and 1 uM preincubated for 60 mins prior to [35S]GTPgammaS addition by liquid scintillation spectrometric analysis; type: functional, cell membranes; conditions: Membrane
Cannabinoid receptor 1 [15] = molecular target: T1, Cannabinoid receptor 1; assay: Agonist activity at human CB1R expressed in CHO-K1 cells assessed as inhibition of CP55,940-induced [35S]GTPgammaS binding up to 1 uM preincubated for 60 mins prior to [35S]GTPgammaS addition by liquid scintillation spectrometric analysis; type: functional, cell-based
Cannabinoid receptor 1 [16] = molecular target: T1, Cannabinoid receptor 1; assay: Inverse agonist activity at human CB1R expressed in CHO-K1 cells assessed as inhibition [35S]GTPgammaS binding up to 1 uM preincubated for 60 mins prior to [35S]GTPgammaS addition by liquid scintillation spectrometric analysis; type: functional, cell-based
[17] = molecular target: Cannabinoid receptor 1 (Mus musculus) (UniProt P47746); assay: Activity at CB1R in mouse brain membranes assessed as inhibition of CP55,940-induced [35S]GTPgammaS binding at 100 nM and 1 uM preincubated for 60 mins prior to [35S]GTPgammaS addition by liquid scintillation spectrometric analysis relative to control; type: functional, cell membranes; conditions: Membrane
Cannabinoid receptor 1 [18] = molecular target: T1, Cannabinoid receptor 1; assay: Positive allosteric modulator activity at human CB1R expressed in HEK293 cell membranes assessed as enhanced binding of [3H]CP55,940 at 500 nM by liquid scintillation spectrometric analysis; conditions: TDE = time-dependent effect
Cannabinoid receptor 1 [19] = molecular target: T1, Cannabinoid receptor 1; assay: Activity at human CB1R expressed in HEK293 cell membranes assessed as reduction in binding of [3H]CP55,940 at 500 nM after 90 to 120 mins by liquid scintillation spectrometric analysis
[20] = molecular target: Cannabinoid receptor 1 (Mus musculus) (UniProt P47746); conditions: Brain, Membrane, at 100 nM

T1 sequence (P21554 whole entry): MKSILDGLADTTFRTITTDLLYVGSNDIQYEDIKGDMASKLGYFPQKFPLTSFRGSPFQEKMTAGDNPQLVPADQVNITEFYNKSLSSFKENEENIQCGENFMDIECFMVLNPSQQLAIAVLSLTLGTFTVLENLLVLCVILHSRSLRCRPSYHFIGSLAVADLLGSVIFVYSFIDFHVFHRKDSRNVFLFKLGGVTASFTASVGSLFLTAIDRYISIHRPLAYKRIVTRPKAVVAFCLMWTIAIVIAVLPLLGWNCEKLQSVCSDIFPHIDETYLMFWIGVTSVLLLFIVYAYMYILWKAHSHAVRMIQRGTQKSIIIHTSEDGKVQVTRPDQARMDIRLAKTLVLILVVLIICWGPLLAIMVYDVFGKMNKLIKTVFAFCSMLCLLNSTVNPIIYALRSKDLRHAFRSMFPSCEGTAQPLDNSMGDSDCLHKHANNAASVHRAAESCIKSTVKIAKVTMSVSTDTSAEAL
Chain of Cannabinoid receptor 1 (Mus musculus) (P47746 whole entry): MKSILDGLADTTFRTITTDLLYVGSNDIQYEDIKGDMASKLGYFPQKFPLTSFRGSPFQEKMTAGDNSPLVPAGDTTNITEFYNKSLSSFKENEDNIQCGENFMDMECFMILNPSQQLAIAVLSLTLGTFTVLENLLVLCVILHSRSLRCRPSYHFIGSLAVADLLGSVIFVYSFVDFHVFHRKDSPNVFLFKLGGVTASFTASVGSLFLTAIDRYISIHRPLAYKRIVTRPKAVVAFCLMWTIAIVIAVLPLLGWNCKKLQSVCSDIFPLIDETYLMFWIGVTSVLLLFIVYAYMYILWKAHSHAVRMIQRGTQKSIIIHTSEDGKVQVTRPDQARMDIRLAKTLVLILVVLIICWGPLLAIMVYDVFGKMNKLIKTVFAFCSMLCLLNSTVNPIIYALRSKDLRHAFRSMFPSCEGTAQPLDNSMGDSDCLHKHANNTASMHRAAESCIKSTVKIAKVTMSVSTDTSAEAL

Row | Structure (SMILES) | Emax (Cannabinoid receptor 1 [1]) [%] | EC50 (Cannabinoid receptor 1 [2]) [nM] | Emax (Cannabinoid receptor 1 [3]) [%] | Ratio EC50 (Cannabinoid receptor 1 [4]) | EC50 (Cannabinoid receptor 1 [5]) [nM] | Emax (Cannabinoid receptor 1 [6]) [%] | also measured
1 | [N-]=[N+]=NCCc1c(C(=O)NCCc2ccc(N3CCCCC3)cc2)[nH]c2ccc(Cl)cc12 | 105 | 1120 | 96.8 | 14 | – | – | –
2 | O=C(Nc1ccc(Cl)cc1)Nc1cccc(-c2cccc(N3CCCC3)n2)c1 | 106 | – | 115 | – | – | – | –
3 | O=C(NCCc1ccc(N2CCCCC2)cc1)c1[nH]c2ccc(Cl)cc2c1CCN=C=S | 107 | > 10000 | -8.84 | 14 | 209 | – | –
4 | CCCCCCC(C)(C)c1ccc([C@@H]2C[C@H](O)CC[C@H]2CCCO)c(O)c1 | – | – | – | – | – | -90.1 | –
5 | CCc1c(C(=O)NCCc2ccc(N3CCCCC3)cc2)[nH]c2ccc(Cl)cc12 | 105 | 324 | 78.1 | – | 9.05 | 109 | Activity (Cannabinoid receptor 1 [7]): Active; inhibition [8]: Active; EC50 (Cannabinoid receptor 1 [9]): 83 nM; Emax [10]: 32.4%; Activity (Cannabinoid receptor 1 [11]): inactive
6 | O=C(Nc1ccc(C(=O)c2ccccc2)cc1)Nc1cccc(-c2cccc(N3CCCC3)n2)c1 | 77.4 | > 10000 | 28.1 | 3 | 683 | – | –
7 | O=C(Nc1ccc(N=C=S)cc1)Nc1cccc(-c2cccc(N3CCCC3)n2)c1 | 106 | – | 78.2 | 3 | 42.9 | – | –
8 | CCc1c(C(=O)NCCc2ccc(N3CCCCC3)cc2)[nH]c2ccc(N=[N+]=[N-])cc12 | 105 | – | 87.1 | 14 | – | – | –
9 | CCc1c(C(=O)NCCc2ccc(N3CCCCC3)cc2)[nH]c2ccc(N=C=S)cc12 | 103 | 174 | 111 | 14 | 2.09 | 116 | inhibition [12]: Dose-dependent effect; Activity [13]: inactive; Activity [14]: inactive; Activity (Cannabinoid receptor 1 [15]): inactive; Activity (Cannabinoid receptor 1 [16]): inactive; EC50 (Cannabinoid receptor 1 [9]): 19.6 nM; Emax [10]: 11.2%; Emax [17]: 87.8%; Activity (Cannabinoid receptor 1 [18]): tde; fold change (FC) (Cannabinoid receptor 1 [11]): 2.25; inhibition (Cannabinoid receptor 1 [19]): Active; Emax [20]: 71.7%
10 | [N-]=[N+]=Nc1ccc(NC(=O)Nc2cccc(-c3cccc(N4CCCC4)n3)c2)cc1 | 105 | 166 | 103 | 3 | 28.2 | – | –

Reference: ChEMBL document CHEMBL3758125 (J Med Chem, 2016)
